Publication PMC10247784, “Physiological activation of human and mouse bitter taste receptors by bile acids” (Communications Biology, 2023)

Molecular target: T1, mouse Tas2r117 (Mus musculus, UniProt Q7M715)
T1 construct: expressed in transfected cells; host or cells: HEK293T-Gα16gust44
T1 sequence (Q7M715 1-330): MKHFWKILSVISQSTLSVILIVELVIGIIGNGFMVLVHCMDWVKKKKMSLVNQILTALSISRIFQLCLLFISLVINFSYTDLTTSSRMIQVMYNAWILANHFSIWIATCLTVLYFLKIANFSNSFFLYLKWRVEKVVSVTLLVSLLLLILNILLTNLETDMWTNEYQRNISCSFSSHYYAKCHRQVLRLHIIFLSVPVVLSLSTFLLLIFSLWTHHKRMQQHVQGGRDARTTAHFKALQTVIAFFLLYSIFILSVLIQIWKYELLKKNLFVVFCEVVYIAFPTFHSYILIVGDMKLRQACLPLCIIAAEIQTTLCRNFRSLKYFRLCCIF
Experiment: Calcium imaging assay (FLIPR), HEK293T-Gα16gust44 cells transfected with mouse Tas2r117
Format: cell-based
Settings: for Δ F/F: Tas2r117; for RLU: sheet Tas2r117, time trace
Experimental: This set of bile acids was chosen because of their commercial availability in high purities, their diversity within the class of bile acids and their previous detection and quantitation in human blood. Stock solutions were prepared in DMSO.
As basal growth medium for the HEK293T-Gα16gust44 cell line[17],[59] served Dulbecco’s modified eagle medium (DMEM) (Thermo Fisher Scientific, Darmstadt, Germany) supplemented with 10 % fetal bovine serum (Sigma-Aldrich, Steinheim, Germany), 2 mM L-glutamine (Sigma-Aldrich, Steinheim, Germany), 100 units/ml penicillin (Sigma Aldrich, Steinheim, Germany) and 100 µg/ml streptomycin (Sigma Aldrich, Steinheim, Germany). Growth conditions were 37 °C, 5 % CO2 and saturated air-humidity[60].
HEK293T-Gα16gust44 cells were seeded on poly-D-lysine (10 µg/ml) coated 96-well plates to reach a confluence of 40-60 % the next day. For transient transfection 150 ng of plasmid DNA containing the receptor of interest and 0.3 µl lipofectamine 2000 (Thermo Fisher Scientific, Darmstadt, Germany) per well were used and transfection took place according to the manual of lipofectamine 2000. […] The empty vector DNA (mock) was transfected as negative control[14],[41].
Cells were loaded using the calcium-sensitive fluorescent dye Fluo-4-AM (Abcam, Cambridge, Great Britain) in the presence of 2.5 mM probenecid (Sigma-Aldrich, Steinheim, Germany) the day after transfection[13],[41]. 1 h after loading, cells were washed with C1 buffer using a BioTek Cell Washer, incubated in the dark for half an hour and washed again. For automated agonist application and measurement of fluorescence changes, a FLIPR^TETRA device (Molecular Devices, San José, United States) was used. Viability of cells was tested by application of 100 nM Somatostatin 14 (Bachem, Bubendorf, Switzerland)[42].
Measured data were negative control corrected by subtracting the signal of the mock-transfected cells and exported to Microsoft Excel using the FLIPR software ScreenWorks 4.2. In Microsoft Excel software, standardization of maximum fluorescence intensities to the basal fluorescence and normalization to the buffer-only control was done to calculate the relative fluorescence changes (ΔF/F).
Initial screening experiments performed in duplicate wells were confirmed by at least one replication and representative traces were selected for display. All dose-response relationships were determined by three independent experiments (biological replicates) performed in duplicates (technical replicates). Threshold concentrations, defined as lowest substance concentrations leading to statistically significant elevated fluorescence changes in receptor-transfected cells compared with empty vector-transfected cells, were determined using SigmaPlot with Student’s t-test to evaluate statistical significance (p < 0.01).

C[C@H](CCC(=O)NCCS(=O)(=O)O)[C@H]1CC[C@H]2[C@@H]3[C@H](O)C[C@@H]4C[C@H](O)CC[C@]4(C)[C@H]3C[C@H](O)[C@]12C [Taurocholic Acid, taurocholic acid]
EC50: 37.4 ± 7.3 µM | Δ F/F (conc. 0,01 mM): 0.02164 | Δ F/F (conc. 0,1 mM): 0.0925 | Δ F/F (conc. 0,03 mM): 0.05976 | Δ F/F (conc. 0,3 mM): 0.1209 | Δ F/F (conc. 0,0003 mM): -0.001001 | Δ F/F (conc. 0,001 mM): -0.004431 | Δ F/F (conc. 0,003 mM): 0.00222 | RLU (Time (s) 0): 0 RLU | RLU (Time (s) 2): 37 RLU | RLU (Time (s) 4): -4.077 RLU | RLU (Time (s) 6): 12.5668 RLU | RLU (Time (s) 8): 5.638 RLU | RLU (Time (s) 12): -15.6594 RLU | RLU (Time (s) 14): 17.1601 RLU | RLU (Time (s) 16): -10.5322 RLU | RLU (Time (s) 18): -8.953 RLU | RLU (Time (s) 18.797): 34.4566 RLU | RLU (Time (s) 20.797): 16.7527 RLU | RLU (Time (s) 22.797): -7.054 RLU | RLU (Time (s) 24.797): 38.2926 RLU | RLU (Time (s) 26.797): 125.403 RLU | RLU (Time (s) 28.797): 141.128 RLU | RLU (Time (s) 30.797): 183.922 RLU | RLU (Time (s) 32.797): 250.112 RLU | RLU (Time (s) 34.797): 267.824 RLU | RLU (Time (s) 36.797): 315.731 RLU | RLU (Time (s) 38.797): 324.81 RLU | RLU (Time (s) 40.797): 359.212 RLU | RLU (Time (s) 42.797): 402.392 RLU | RLU (Time (s) 44.797): 440.644 RLU | RLU (Time (s) 46.797): 454.758 RLU | RLU (Time (s) 48.797): 463.447 RLU | RLU (Time (s) 50.797): 471.258 RLU | RLU (Time (s) 52.797): 487.155 RLU | RLU (Time (s) 54.797): 505.642 RLU | RLU (Time (s) 56.797): 516.341 RLU | RLU (Time (s) 58.797): 527.833 RLU | RLU (Time (s) 60.797): 539.947 RLU | RLU (Time (s) 62.797): 536.466 RLU | RLU (Time (s) 64.797): 575.129 RLU | RLU (Time (s) 66.797): 570.621 RLU | RLU (Time (s) 68.797): 568.562 RLU | RLU (Time (s) 70.797): 591.97 RLU | RLU (Time (s) 72.797): 606.798 RLU | RLU (Time (s) 74.797): 593.706 RLU | RLU (Time (s) 76.797): 614.892 RLU | RLU (Time (s) 78.797): 632.141 RLU | RLU (Time (s) 80.797): 632.141 RLU | RLU (Time (s) 82.797): 632.241 RLU | RLU (Time (s) 84.797): 611.445 RLU | RLU (Time (s) 86.797): 626.947 RLU | RLU (Time (s) 88.797): 643.242 RLU | RLU (Time (s) 90.797): 605.466 RLU | RLU (Time (s) 92.797): 611.522 RLU | RLU (Time (s) 94.797): 620.11 RLU | RLU (Time (s) 96.797): 645.547 RLU | RLU (Time (s) 98.797): 644.046 RLU | RLU (Time (s) 100.797): 637.565 RLU | RLU (Time (s) 102.797): 626.02 RLU | RLU (Time (s) 104.797): 634.671 RLU | RLU (Time (s) 106.797): 616.97 RLU | RLU (Time (s) 108.797): 624.712 RLU | RLU (Time (s) 110.797): 625.807 RLU | RLU (Time (s) 112.797): 626.586 RLU | RLU (Time (s) 114.797): 603.263 RLU | RLU (Time (s) 116.797): 606.551 RLU | RLU (Time (s) 118.797): 596.327 RLU | RLU (Time (s) 120.797): 576.654 RLU | RLU (Time (s) 122.797): 563.677 RLU | RLU (Time (s) 124.797): 585.101 RLU | RLU (Time (s) 126.797): 566.056 RLU | RLU (Time (s) 128.797): 584.636 RLU | RLU (Time (s) 130.797): 552.659 RLU | RLU (Time (s) 132.797): 568.02 RLU | RLU (Time (s) 134.797): 561.297 RLU | RLU (Time (s) 136.797): 551.223 RLU | RLU (Time (s) 137.562): 556.479 RLU | RLU (Time (s) 143.578): 502.769 RLU | RLU (Time (s) 149.578): 498.126 RLU | RLU (Time (s) 155.578): 490.146 RLU | RLU (Time (s) 161.578): 459.867 RLU | RLU (Time (s) 167.578): 446.745 RLU | RLU (Time (s) 173.578): 415.03 RLU | RLU (Time (s) 179.578): 413.791 RLU | RLU (Time (s) 191.578): 382.098 RLU | RLU (Time (s) 197.578): 382.449 RLU | RLU (Time (s) 209.578): 344.754 RLU | RLU (Time (s) 221.578): 256.376 RLU | RLU (Time (s) 233.578): 235.774 RLU | RLU (Time (s) 239.578): 212.664 RLU | RLU (Time (s) 245.578): 220.667 RLU | RLU (Time (s) 293.578): 147.781 RLU | RLU (Time (s) 299.578): 155.364 RLU | RLU (Time (s) 305.578): 177.719 RLU | RLU (Time (s) 311.578): 178.93 RLU | RLU (Time (s) 317.578): 167.01 RLU | RLU (Time (s) 323.578): 136.818 RLU | RLU (Time (s) 329.578): 148.504 RLU | RLU (Time (s) 335.578): 153.255 RLU | RLU (Time (s) 341.578): 110.601 RLU | RLU (Time (s) 347.578): 112.243 RLU | RLU (Time (s) 353.578): 94.0464 RLU | RLU (Time (s) 359.578): 105.186 RLU | Activation threshold concentration Tas2r117 (p < 0.01 vs empty vector): 30 µM
